Test results as given in patent US9833497B2, “Human originated EGF domain proteins and use of the same” (CHENGDU SOURCEBIO LIMITED-LIABILITY COMPANY, priority 2013, dated 2017).

Legend:
Type in all cases: cell-based
[1] = system: Pseudomonas aeruginosa; test: MIC against Gram-negative bacteria: Pseudomonas aeruginosa; conditions: for MIC (μg/mL) P. aeruginosa: 96-well plate, 37° C., 10 h; for MIC: P. aeruginosa
In short: (§1)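 Antibacterial activity of purified human EGF domain proteins: two-fold concentration series, triplicate wells, LB broth, 5×10^5 CFU/mL bacteria, 37° C shaking incubation. The lowest concentration without growth defines the MIC.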

[2] = system: Proteus mirabilis; test: MIC against Gram-negative bacteria: Proteus mirabilis; conditions: for MIC (μg/mL) P. mirabilis: 96-well plate, 37° C., 10 h; for MIC: P. mirabilis
In short: as §1

[3] = system: Proteus vulgaris; test: MIC against Gram-negative bacteria: Proteus vulgaris; conditions: for MIC (μg/mL) P. vulgaris: 96-well plate, 37° C., 10 h; for MIC: P. vulgaris
In short: as §1

[4] = system: Serratia marcescens; test: MIC against Gram-negative bacteria: Serratia marcescens; conditions: for MIC (μg/mL) S. marcescens: 96-well plate, 37° C., 10 h; for MIC: S. marcescens
In short: as §1

[5] = system: Aeromonas hydrophila; test: MIC against Gram-negative bacteria: Aeromonas hydrophila; conditions: for MIC (μg/mL) A. hydrophila: 96-well plate, 37° C., 10 h; for MIC: A. hydrophila
In short: as §1

[6] = system: E. coli BL21; test: MIC against Gram-negative bacteria: E. coli BL21; conditions: E. coli BL21; for MIC (μg/mL) E. coli BL21: 96-well plate, 37° C., 10 h
In short: as §1

[7] = system: E. coli DH5α; test: Antibacterial activity: MIC and growth curve against E. coli DH5α in 96-well plate; conditions: minimal inhibitory concentration against E. coli DH5α; 96-well plate, 5×10^5 CFU/mL, 37° C., judged after 8 h
In short: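 Log-phase DH5α (OD600 about 0.5, 37° C, 185 rpm in LB) was pelleted, resuspended in fresh LB and seeded at 5×10^5 CFU/mL with recombinant protein at 50, 25 and 12.5 μg/mL (two-fold series), in triplicate. Plates were shaken at 175 rpm, 37° C, and OD600 was read every 30 min. MIC was the lowest concentration with no growth.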

[8] = system: Enterobacter cloacae; test: MIC against Gram-negative bacteria: Enterobacter cloacae; conditions: for MIC (μg/mL) E. cloacae: 96-well plate, 37° C., 10 h; for MIC: E. cloacae
In short: as §1

[9] = system: Moraxella catarrhalis; test: MIC against Gram-negative bacteria: Moraxella catarrhalis; conditions: for MIC (μg/mL) M. catarrhalis: 96-well plate, 37° C., 10 h; for MIC: M. catarrhalis
In short: as §1

[10] = system: Citrobacter diversus; test: MIC against Gram-negative bacteria: Citrobacter diversus; conditions: for MIC (μg/mL) C. diversus: 96-well plate, 37° C., 10 h; for MIC: C. diversus
In short: as §1

[11] = system: Klebsiella pneumonia; test: MIC against Gram-negative bacteria: Klebsiella pneumonia; conditions: for MIC (μg/mL) K. pneumonia: 96-well plate, 37° C., 10 h; for MIC: K. pneumonia
In short: as §1

[12] = Pseudomonas aeruginosa, 5×10^5 CFU/mL
[13] = Proteus mirabilis, 5×10^5 CFU/mL
[14] = Proteus vulgaris, 5×10^5 CFU/mL
[15] = Serratia marcescens, 5×10^5 CFU/mL
[16] = Aeromonas hydrophila, 5×10^5 CFU/mL
[17] = Enterobacter cloacae, 5×10^5 CFU/mL
[18] = Moraxella catarrhalis, 5×10^5 CFU/mL
[19] = Citrobacter diversus, 5×10^5 CFU/mL
[20] = Klebsiella pneumonia, 5×10^5 CFU/mL

With “PRT62 (ASGDCVPSPCHNGGTCLEEEEGVRCLCLPGYGGDLCD; listed as Homo sapiens)” the “MIC (μg/mL) P. aeruginosa” value [1, 12] was 12.5 µg/mL, the “MIC (μg/mL) P. mirabilis” value [2, 13] was 12.5 µg/mL and the “MIC (μg/mL) P. vulgaris” value [3, 14] was 12.5 µg/mL. The “MIC (μg/mL) S. marcescens” value [4, 15] was 25 µg/mL, the “MIC (μg/mL) A. hydrophila” value [5, 16] was 25 µg/mL and the “MIC (μg/mL) E. coli BL21” value ([6]; 5×10^5 CFU/mL) was 100 µg/mL. The MIC [7] was 12.5 µg/mL, the “MIC (μg/mL) E. cloacae” value [8, 17] was 12.5 µg/mL and the “MIC (μg/mL) M. catarrhalis” value [9, 18] was 25 µg/mL. The “MIC (μg/mL) C. diversus” value [10, 19] was 12.5 µg/mL and the “MIC (μg/mL) K. pneumonia” value [11, 20] was 12.5 µg/mL.
For “PRT1404 (RAACPVLCSGNGQYSKGRCLCFSGWKGTECD; listed as Homo sapiens)”, the “MIC against P. aeruginosa” value ([1]; Pseudomonas aeruginosa, 5×10^5 CFU/mL, 10 h cultivation at 37° C.) was 50 µg/mL, the “MIC against P. mirabilis” value ([2]; Proteus mirabilis, 5×10^5 CFU/mL, 10 h cultivation at 37° C.) was 12.5 µg/mL and the “MIC against P. vulgaris” value ([3]; Proteus vulgaris, 5×10^5 CFU/mL, 10 h cultivation at 37° C.) was 25 µg/mL. For the same substance, the “MIC against S. marcescens” value ([4]; Serratia marcescens, 5×10^5 CFU/mL, 10 h cultivation at 37° C.) was 50 µg/mL, the “MIC against A. hydrophila” value ([5]; Aeromonas hydrophila, 5×10^5 CFU/mL, 10 h cultivation at 37° C.) was 25 µg/mL and the “MIC against E. coli BL21” value ([6]; 5×10^5 CFU/mL, 10 h cultivation at 37° C.) was 25 µg/mL. The MIC [7] was 12.5 µg/mL, the “MIC against E. cloacae” value ([8]; Enterobacter cloacae, 5×10^5 CFU/mL, 10 h cultivation at 37° C.) was 12.5 µg/mL and the “MIC against M. catarrhalis” value ([9]; Moraxella catarrhalis, 5×10^5 CFU/mL, 10 h cultivation at 37° C.) was 25 µg/mL. For the same substance, the “MIC against C. diversus” value ([10]; Citrobacter diversus, 5×10^5 CFU/mL, 10 h cultivation at 37° C.) was 50 µg/mL and the “MIC against K. pneumonia” value ([11]; Klebsiella pneumonia, 5×10^5 CFU/mL, 10 h cultivation at 37° C.) was 25 µg/mL.
With “PRT129 (CSTYGHLCRNGGRCREKRRGVTCDCAFSAYDGPFC; listed as Homo sapiens)” the “MIC (μg/mL) P. aeruginosa” value [1, 12] was 50 µg/mL, the “MIC (μg/mL) P. mirabilis” value [2, 13] was 25 µg/mL and the “MIC (μg/mL) P. vulgaris” value [3, 14] was 12.5 µg/mL. The “MIC (μg/mL) S. marcescens” value [4, 15] was 12.5 µg/mL, the “MIC (μg/mL) A. hydrophila” value [5, 16] was 25 µg/mL and the “MIC (μg/mL) E. coli BL21” value ([6]; 5×10^5 CFU/mL) was 12.5 µg/mL. The MIC [7] was 50 µg/mL, the “MIC (μg/mL) E. cloacae” value [8, 17] was 50 µg/mL and the “MIC (μg/mL) M. catarrhalis” value [9, 18] was 25 µg/mL. The “MIC (μg/mL) C. diversus” value [10, 19] was 12.5 µg/mL and the “MIC (μg/mL) K. pneumonia” value [11, 20] was 12.5 µg/mL.
With “PRT969 (LLSPCTPNPCEHGGRCESAPGQLPVCSCPQGWQGPRCQ; listed as Homo sapiens)” the MIC ([1]; 10 h cultivation at 37° C.) was 25 µg/mL, the MIC ([2]; 10 h cultivation at 37° C.) was 50 µg/mL and the MIC ([3]; 10 h cultivation at 37° C.) was 25 µg/mL. For the same substance, the MIC ([4]; 10 h cultivation at 37° C.) was 12.5 µg/mL, the MIC ([5]; 10 h cultivation at 37° C.) was 25 µg/mL and the MIC ([6]; 10 h cultivation at 37° C.) was 12.5 µg/mL. For the same substance, the MIC [7] was 50 µg/mL, the MIC ([8]; 10 h cultivation at 37° C.) was 25 µg/mL and the MIC ([9]; 10 h cultivation at 37° C.) was 25 µg/mL. The MIC ([10]; 10 h cultivation at 37° C.) was 12.5 µg/mL and the MIC ([11]; 10 h cultivation at 37° C.) was 50 µg/mL.
“PRT900 (VLAPCAPSPCRNGGECRQSEDYESFSCVCPTGWQGQTCE; listed as Homo sapiens)” gave an MIC ([1]; 10 h cultivation at 37° C.) of 12.5 µg/mL, an MIC ([2]; 10 h cultivation at 37° C.) of 12.5 µg/mL and an MIC ([3]; 10 h cultivation at 37° C.) of 25 µg/mL. It also gave an MIC ([4]; 10 h cultivation at 37° C.) of 50 µg/mL, an MIC ([5]; 10 h cultivation at 37° C.) of 12.5 µg/mL and an MIC ([6]; 10 h cultivation at 37° C.) of 25 µg/mL. The MIC [7] was 12.5 µg/mL, the MIC ([8]; 10 h cultivation at 37° C.) was 12.5 µg/mL and the MIC ([9]; 10 h cultivation at 37° C.) was 25 µg/mL. For the same substance, the MIC ([10]; 10 h cultivation at 37° C.) was 12.5 µg/mL and the MIC ([11]; 10 h cultivation at 37° C.) was 12.5 µg/mL.
